Test results reported in US5306496A, “Antibiotics NK374186A, NK374186B, NK374186B3 and NK374186C3, process for producing the same, and use of the same” (Nippon Kayaku Kabushiki Kaisha, priority 1991, dated 1994).
≈ marks a conversion by molar mass, not a printed value.

Legend:
Li-7, A2780 and 2780^AD = test: Cell growth suppressing activity (MTT method), all cell lines, in words; format: cell-based, human; conditions: each cell line
Method: (§1) Cells are incubated in an RPMI 1640 medium containing 10% of fetal calf serum at 37° C. under 5% of CO2. Then these cells are sowed in a 96-well plate and pre-incubated for 1 day, followed by the addition of each test compound. The treatment with the test compound was carried out for 2 days and the activity of suppressing the cell growth was evaluated by the MTT method.

[1] = tested on: Bacillus megaterium ATCC 14945; test: Antibacterial activity, MIC by agar dilution method; format: cell-based; conditions: Muller/Hinton medium, 37° C., overnight
Method: (§2) The antibacterial and antifungal activities of each antibiotic are expressed in minimum inhibitory concentration (MIC) determined by the agar dilution method. In the antibacterial activity test, each test microorganism is inoculated onto a Muller/Hinton medium and cultured therein at 37° C. overnight to observe the growth of the microorganism. In the antifungal activity test, each test microorganism is inoculated onto a Czapek medium and cultured therein at 27° C. for 2 to 3 days, followed by the observation of the growth of the microorganism.

[2] = as above; format: cell-based; conditions: Mycobacterium luteus ATCC 9341; Muller/Hinton medium, 37° C., overnight
Method: as §2

[3] = tested on: Staphylococcus aureus FDA 209P; test: as above; format: cell-based; conditions: Muller/Hinton medium, 37° C., overnight
Method: as §2

[4] = tested on: Bacillus subtilis ATCC 6633; test: as above; format: cell-based; conditions: Muller/Hinton medium, 37° C., overnight
Method: as §2

[5] = tested on: Bacillus subtilis IAM 1072; test: as above; format: cell-based; conditions: Muller/Hinton medium, 37° C., overnight
Method: as §2

[6] = tested on: Micrococcus flavus ATCC 10240; test: as above; format: cell-based; conditions: Muller/Hinton medium, 37° C., overnight
Method: as §2

Escherichia coli NIHJ = test: as above; format: cell-based; conditions: Muller/Hinton medium, 37° C., overnight
Method: as §2

Escherichia coli K-12 = test: as above; format: cell-based; conditions: Muller/Hinton medium, 37° C., overnight
Method: as §2

[7] = tested on: Penicillium chrysogenum IFO 8645; test: Antifungal activity, MIC by agar dilution method; format: cell-based; conditions: Czapek medium, 27° C., 2 to 3 days
Method: as §2

[8] = tested on: Aspergillus niger IFO 4407; test: Antifungal activity, MIC by agar dilution method; format: cell-based; conditions: Czapek medium, 27° C., 2 to 3 days
Method: as §2

[9] = tested on: Rhizopus hanguchao IFO 4749; test: Antifungal activity, MIC by agar dilution method; format: cell-based; conditions: Czapek medium, 27° C., 2 to 3 days
Method: as §2

Mucor javanicus IFO 4569 = test: Antifungal activity, MIC by agar dilution method; format: cell-based; conditions: Czapek medium, 27° C., 2 to 3 days
Method: as §2

[10] = tested on: Trycophyton mentagrophytes IFO 5466; test: Antifungal activity, MIC by agar dilution method; format: cell-based; conditions: Czapek medium, 27° C., 2 to 3 days
Method: as §2

[11] = tested on: Candida albicans IFO 1385; test: Antifungal activity, MIC by agar dilution method; format: cell-based; conditions: Czapek medium, 27° C., 2 to 3 days
Method: as §2

Botrytis fabae IFO 6183 = test: Antifungal activity, MIC by agar dilution method; format: cell-based; conditions: Czapek medium, 27° C., 2 to 3 days
Method: as §2

[12] = tested on: mouse lymphoblast formation with Con A (T cells); test: Mouse lymphoblast formation with Con A ([^3 H]-thymidine uptake); format: cell-based, BALB/C mouse; conditions: Con A 5 μg/ml, 72 hours, control = 100
Method: (§3) An RPMI 1640 medium containing 20% of fetal calf serum, 25 mM of Hepes buffer, 100 μg/ml of streptomycin and 100 U/ml of penicillin G is used. The incubation is carried out in a 96-well flat-bottomed microplate (COSTAR). As a mitogen, lipopolysaccharide (LPS) and concanavalin A (Con A) are used respectively at final concentrations of 100 μg/ml and 5 μg/ml.
(§4) The spleen of a BALB/C mouse (female,>20 weeks in age) is taken out and a single-cell suspension is prepared. After removing erythrocytes by hyper shock, the suspension is used as such for the treatment with LPS. For the treatment with Con A, on the other hand, the suspension is passed through a Nylon Fiber (a product of Wako Pure Chemicals, Inc.) for separating T cells. 2×10^5 /well of the spleen cells and each test compound of the concentration as specified above are added to thereby give a total volume of 0.2 ml/well, followed by incubation for 72 hours. 8 hours before the completion of the incubation, 37 KBq/well of [^3 H]-thymidine is added and the thymidine uptake in the cells is measured. The effect is evaluated based on the ratio of the [^3 H]-thymidine uptake of a test group to that of a control group ["Meneki Jikken Sosa-ho (Procedures of Immunological Tests)", ed. by Japan Assoc. of Immunol., pages 2267-2276].

2780^AD = test: Cell growth suppressing activity (MTT method), adriamycin-resistant strain; format: cell-based, human; conditions: adriamycin-resistant strain obtained from A2780, 2 days
Method: as §1

[13] = tested on: transplanted section/host reaction (GVH); test: Transplanted section/host reaction (GVH), spleen weighing method; format: in vivo, BDF mouse; conditions: for Spleen/total body weight ± S.D. / Index (spleen/total body weight): subcutaneous, 3 days; for Spleen/total body weight ± S.D.: seventh day after transplantation; for Index (spleen/total body weight): untreated = 1.00
Method: This test is carried out in accordance with the spleen weighing method of Ford et al. [Ford, W. L., et al., Handbook of Experimental Immunology 30 (ed. by Weir, D. M.), Blackwell Scientific Publications, (1978), page 1]. 5×10^6 spleen cells obtained from a donor C57BL/6 mouse (male, aged 8 weeks) are transplanted into the peritoneal cavity of a BDF mouse (male, aged 7 weeks) which is the Fl hybrid receptor. At the same time, NK374186 and a control drug are dissolved in a solvent (0.25 % gum arabic) and subcutaneously injected into the dorsum of the receptor mouse. As a control, the solvent alone is also subcutaneously injected into the dorsum of the mouse. The same administration is effected on the next day and on the following day. On the seventh day after the transplantation, the spleen of the animal is weighed.

[14] = tested on: Bacilli, Staphylococcus and Micrococcus; test: Antibacterial activity, summary in words; format: cell-based; conditions: on Bacilli, agar dilution method
Method: as §2

A2780 = test: Cell growth suppressing activity (MTT method); format: cell-based; conditions: A2780, human ovarian cancer, 2 days
Method: as §1

Li-7 = test: Cell growth suppressing activity (MTT method); format: cell-based; conditions: Li-7, human hepatic cancer, 2 days
Method: as §1

[15] = tested on: mouse lymphoblast formation with LPS (spleen cells); test: Mouse lymphoblast formation with LPS ([^3 H]-thymidine uptake); format: cell-based, BALB/C mouse; conditions: 72 hours, control = 100
Method: as §3, §4

Solubility = format: physicochemical
mammalian cells = test: Suppressing the growth of mammalian cells, in words; format: cell-based
[16] = tested on: mouse lymphoblast formation with LPS and Con A; test: Mouse lymphoblast formation with LPS and Con A, summary in words; format: cell-based, BALB/C mouse
Method: as §3, §4

CDF-1 mice = test: Toxicity, repeated intraperitoneal administration; format: in vivo; conditions: 100 mg/kg intraperitoneal once a day for 10 days
Method: 100 mg/kg of NK374186A and NK374186B are intraperitoneally administered to CDF-1 mice (male, aged 8 weeks) repetitively once a day for 10 days. Each test compound is administered in the form of a solution in 3.5% DMSO+6.5% Tween+90% physiological saline.

What does the source list for `C=CC(C)(C)[C@H](NC(=O)[C@H](C)[C@H](O)[C@H](C)[C@H](O)CCCCCCCCCCCCC)C(=O)N[C@H](C(=O)N[C@@H](C=O)C(=O)O)[C@@H](C)O` [NK374186B]?
cell growth suppression (Li-7, A2780 and 2780^AD): suppress the growth of each cell line; MIC [1]: 6.25 µg/mL (≈ 9.53 µM); MIC [2]: > 100 µg/mL; MIC [3]: 3.13 µg/mL (≈ 4.77 µM); MIC [4]: > 100 µg/mL; MIC [5]: 6.25 µg/mL (≈ 9.53 µM); MIC [6]: 3.13 µg/mL (≈ 4.77 µM); MIC (Escherichia coli NIHJ): > 100 µg/mL; MIC (Escherichia coli K-12): > 100 µg/mL; MIC [7]: > 100 µg/mL; MIC [8]: > 100 µg/mL; MIC [9]: > 100 µg/mL; MIC (Mucor javanicus IFO 4569): > 100 µg/mL; MIC [10]: > 100 µg/mL; MIC [11]: > 100 µg/mL; MIC (Botrytis fabae IFO 6183): > 100 µg/mL; Function index, Con A ([12]; 0.1 μg/ml): 133.7%; Function index, Con A ([12]; 1 μg/ml): 168.8%; Function index, Con A ([12]; 10 μg/ml): 111.6%; Function index, Con A ([12]; 100 μg/ml): 31.5%; IC50 (2780^AD): 33 µg/mL (≈ 50.3 µM); Spleen/total body weight ± S.D. ([13]; 0.5 mg/kg): 8.24 ± 1.54 ×10^-3; Index (spleen/total body weight) ([13]; 0.5 mg/kg): 1.74; Spleen/total body weight ± S.D. ([13]; 5 mg/kg): 11.32 ± 3.61 ×10^-3; Index (spleen/total body weight) ([13]; 5 mg/kg, * printed): 2.40; Spleen/total body weight ± S.D. ([13]; 50 mg/kg): 12.63 ± 3.37 ×10^-3; Index (spleen/total body weight) ([13]; 50 mg/kg, * (A), ** (B) printed): 2.67; GVH reaction ([13]; in words): significantly enhanced; spleen/total body weight ratio ([13]; in words): increased depending on the dose; antibacterial activity [14]: potent antibacterial activity on Bacilli, Staphylococcus and Micrococcus; IC50 (A2780): 6.6 µg/mL (≈ 10.1 µM); IC50 (Li-7): 7.0 µg/mL (≈ 10.7 µM); Function index, LPS ([15]; 0.1 μg/ml, LPS 100 μg/ml): 156.3%; Function index, LPS ([15]; 1 μg/ml, LPS 100 μg/ml): 156.3%; Function index, LPS ([15]; 10 μg/ml, LPS 100 μg/ml): 94.7%; Function index, LPS ([15]; 100 μg/ml): 0.8%; solubility (Solubility): soluble in lower alcohols, chloroform and ethyl acetate; activity of suppressing the growth of mammalian cells (mammalian cells): weak activity of suppressing the growth of mammalian cells; lymphoblast formation ([16]; at a concentration of 10 μg/ml or above): potently suppress the same at a concentration of 10 μg/ml or above; lymphoblast formation ([16]; at a lower concentration): promote the lymphoblast formation with LPS and Con A at a lower concentration; death of mice (CDF-1 mice): none of these compounds causes the death of mice; toxicity (CDF-1 mice): low toxicity; clinical conditions (CDF-1 mice; versus solvent control group): no difference from those of the solvent control group
